# Experimental data: patent US11491139B2, “Inhibition of YAP for breaking tumor immune tolerance” (The Johns Hopkins University, priority 2015, dated 2022)
# Legend:
# [1] = statement with reference [17]; may limit bioavailability; cited from earlier work
# [2] = system: B16-melanoma cells; assay: B16-melanoma growth experiments in mice (tumor volume); assay type: in vivo; conditions: C57BL/6 mice challenged with B16-melanoma, Verteporfin 2 mg/mouse i.p. every two days, anti-PD-1 (G4) 100 μg/mouse i.p. twice a week, GVAX 1×10^6 irradiated cells s.c., FIG. 4
# Experimental: C57BL/6 mice were challenged with B16-melanoma cells and tumor progression was monitored as in FIG. 3. Cohorts of mice were injected treated with either VP, GVAX, anti-PD1 antibody, VP and anti-PD-1, or VP and GVAX beginning one day post-tumor injection. Control mice were left untreated (n=5/group). Shown are the mean tumor volumes for the groups +/−SD.
# B16-melanoma cells were cultured in vitro in DMEM plus 10% heat inactivated Fetal Bovine Serum and were detached by trypsinization and washed prior to s.c. injection into the footpads of C57BL/6 mice (NCI). 1-5×10^4 B16 melanoma cells were injected each mouse in the footpad. In some cases, 10^5 B16 cells were injected. Once tumors were palpable (7-10 days), […] of 1×10^6 lethally irradiated (150Gy) B16 GM-vaccine cells were injected subcutaneously into the contralateral limb. For all these experiments, 5-10 mice were used per group. A hybridoma cell line expressing a blocking anti-PD-1 antibody (clone G4) was obtained from Dr. Charles Drake (JHH). […] Tumor volume was determined by digital caliper measurements throughout the experiment. The relative tumor volume was calculated by the formula: Length (mm)×Width (mm)×Height (mm)×0.5326×0.01. […] Cytokines and Foxp3 were measured by intracellular flow cytometry.
substance,measurement,setting,value
Verteporfin,solubility,[1],prone to solubility issues
same,tumor growth / tumor size (tumor volume),[2],modest reduction in tumor size
same,tumor growth / tumor size (tumor volume),[2]; listed as VP,did not alter the course of tumor growth
